From patent US20250059188A1, “ARYLSULPHONAMIDE COMPOUNDS” (Anaxis Pharma Pty Ltd, priority 2021, published 2025) come the findings set out here.

Where two headings read alike, the source gives them in different places.

The test system of experiment [1] is Immortalised Mouse Dermal Fibroblasts (MDFs). Nature of the experiment: Inhibition of TSI induced necroptosis in mouse dermal fibroblasts (CellTitre-Glo). Conditions: MDF cells, TSI cocktail (TNF, Smac mimetic, IDN-6556), read-out: Inhibition of TSI-induced necroptosis (IC50 cell-based assay) in MDF. The method, then: Cellular Assay: Screening Compounds for Inhibition of TSI Induced Necroptosis in, 384 well plate format. • Cell Line ID: Immortalised Mouse Dermal Fibroblasts (MDFs). • Cell Concentration (cells/well): Final cell density is 2200 cells per well. • Cell growth medium: DMEM medium+7.4% Fetal Bovine Serum (FBS). Cells are cultured in Corning 150 cm^2 tissue culture flasks with vented caps at 37° C./10% CO2. • Incubation: Plates were incubated for 30 minutes following addition of compounds and then 3 hours incubation with death stimuli (TSI cocktail) at 37° C./10% CO2 in a humidified incubator. • Compound concentration: 36 μM starting concentration, 1:3 dilution, 10 point • DMSO final concentration (% v/v): 0.3%. Compounds in TSI Cocktail (T: TNF; S: Smac Mimetic; I: IDN-6556) and their Final Concentrations: • rhTNF (100 ng/ml) • Compound A (500 nM)—Smac mimetic, Tetralogic and SYNthesis med chem • IDN-6556 (10 μM)—Selleckchem (S7775)
The cellular assay was carried out according to the following steps: • 1. Each well was prepared by sequential addition of: • a. 40 μL of cell suspension (5.5×10^4 cells/mL) was added to each well to provide a final cell concentration of 2,200 cells per well. • b. After 24 hours, DMSO (control; columns 1-2 and 23-24) or compound in DMSO—addition was performed using acoustic transfer of nL volumes of stock compound to give final test concentrations of 36, 12, 4, 1.3, 0.44, 0.148, 0.049, 0.016, 0.005 and 0.002 μM. All wells were backfilled with DMSO to a final total volume in the well of 100 nL. • c. Following compound/DMSO addition in step (b), Plates were incubated for 30 minutes at 37° C./10% CO2 in a humidified incubator and then 10 μL of 5×TSI cocktail (except to positive controls; columns 2 and 24) was added to each well. • 2. After 3 hours, plate was removed from the 37° C. incubator and equilibrated to room temperature for 15 minutes. • 3. 15 μL of room temperature CellTitre-Glo2™ (Promega™) was added to each well. • 4. Shook plates for 2 minutes (˜600 rpm) and incubated at room temperature for 15 minutes to allow signal to stabilise. • 5. Read luminescence readout on a plate reader.
Percent viability was calculated for each compound according to equation (2): […]
10 point titration curves were fitted with the 4 parameter logistic nonlinear regression model and the IC50 reported reflect the inflection point of the curve for curve fitting.
• Assay involving the TSI cocktail (T: TNF; S: Smac mimetic; I: IDN-6556): TSI treatment ensures that cells specifically undergo necroptotic cell death. TNF activates the TNF receptor, Smac mimetic directs the signal away from proinflammatory signaling and toward the RIPK1/RIPK3-mediated cell death pathways, and IDN-6556 (Caspase inhibitor) ensures that the apoptotic response is blocked leaving only the programmed necrosis response. The compounds' activity (solution in DMSO) tested in this TSI-induced assay was evaluated by determining the number of viable cells in culture by measuring the amount of ATP present as measured by CelltiterGlo.

Experiment [2] concerns the target human RIPK1 (Homo sapiens (Human), UniProt Q13546). Kind of experiment: KINOMEscan binding assay, human RIPK1. The conditions noted are these: equilibrium dissociation constant. In short, it runs like this: (§1)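 Binding constants were derived by fitting qPCR-quantified bead-retained kinase against compound concentration to the Hill equation, slope set at −1. Compound series were 3-fold over 11 points with 1% DMSO; most top concentrations were 30,000 nM. Kinases were T7-phage-tagged or HEK-293-produced with DNA tags.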

The subject of experiment [3] is U937 human histiocytic leukemia cell line. Nature of the experiment: Inhibition of TSQ induced necroptosis in U937 cells (CellTitre-Glo). The conditions noted are these: 48 hours, read-out: Inhibition of TSQ-induced necroptosis (IC50 cell-based assay). In short, it runs like this: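 Necroptosis was induced with TNF-Fc (100 ng/ml), Smac mimetic (500 nM) and Q-VD-OPh (10 μM) in 20000 U937 cells/well exposed to a 10-point, 3-fold compound series (top 36 μM, 0.3% DMSO). ATP luminescence read after 48 h; 4-parameter fit gave IC50. Parallel TSQ-free wells assessed compound toxicity.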

For experiment [4], the system named is U937 cells. Nature of the experiment: Counter screen: U937 cell viability without TSQ cocktail (off-target effect). The conditions noted are these: read-out: Off-target effect (IC50 cell-based assay). On the set-up: species or system human. The method in brief: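 Off-target viability counter screen: compounds titrated 36 μM down 1:3 over 10 points (0.3% DMSO) on 20,000 U937 cells/well, no TNF/Smac mimetic/Q-VD-OPh added, 48 h incubation. ATP-based CellTiter-Glo luminescence, four-parameter logistic IC50.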

Experiment [5] has as its target human RIPK3 (Homo sapiens (Human), UniProt Q9Y572). Nature of the experiment: KINOMEscan binding assay, human RIPK3. The conditions noted are these: equilibrium dissociation constant. In short, it runs like this:
as §1

Experiment [6] addresses human MLKL (full length) (Homo sapiens (Human), UniProt Q8NB16). Nature of the experiment: KINOMEscan binding assay, human MLKL (full length). Conditions: equilibrium dissociation constant. In short, it runs like this:
as §1

Where [7] appears, read: TSQ cocktail (TNF, Smac mimetic, Q-VD-OPh).
Where [8] appears, read: Homo sapiens, U-937, TSQ cocktail (TNF, Smac mimetic, Q-VD-OPh).
[9] abbreviates: Homo sapiens, U-937, compound without TSQ cocktail.

Chain of human MLKL (full length) (Q8NB16 whole entry): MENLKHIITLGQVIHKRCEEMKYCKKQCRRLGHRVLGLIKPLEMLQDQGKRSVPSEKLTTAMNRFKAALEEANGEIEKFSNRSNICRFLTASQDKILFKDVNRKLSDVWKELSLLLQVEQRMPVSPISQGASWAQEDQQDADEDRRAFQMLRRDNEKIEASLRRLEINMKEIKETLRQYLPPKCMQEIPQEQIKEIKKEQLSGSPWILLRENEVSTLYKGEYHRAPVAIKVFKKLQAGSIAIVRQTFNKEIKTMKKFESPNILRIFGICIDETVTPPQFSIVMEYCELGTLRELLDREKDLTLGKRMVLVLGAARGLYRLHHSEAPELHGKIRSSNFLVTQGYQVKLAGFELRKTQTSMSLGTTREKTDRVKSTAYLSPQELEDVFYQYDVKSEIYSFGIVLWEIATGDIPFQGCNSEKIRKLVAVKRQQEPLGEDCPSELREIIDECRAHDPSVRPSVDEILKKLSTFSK
Chain of human RIPK1 (Q13546 whole entry): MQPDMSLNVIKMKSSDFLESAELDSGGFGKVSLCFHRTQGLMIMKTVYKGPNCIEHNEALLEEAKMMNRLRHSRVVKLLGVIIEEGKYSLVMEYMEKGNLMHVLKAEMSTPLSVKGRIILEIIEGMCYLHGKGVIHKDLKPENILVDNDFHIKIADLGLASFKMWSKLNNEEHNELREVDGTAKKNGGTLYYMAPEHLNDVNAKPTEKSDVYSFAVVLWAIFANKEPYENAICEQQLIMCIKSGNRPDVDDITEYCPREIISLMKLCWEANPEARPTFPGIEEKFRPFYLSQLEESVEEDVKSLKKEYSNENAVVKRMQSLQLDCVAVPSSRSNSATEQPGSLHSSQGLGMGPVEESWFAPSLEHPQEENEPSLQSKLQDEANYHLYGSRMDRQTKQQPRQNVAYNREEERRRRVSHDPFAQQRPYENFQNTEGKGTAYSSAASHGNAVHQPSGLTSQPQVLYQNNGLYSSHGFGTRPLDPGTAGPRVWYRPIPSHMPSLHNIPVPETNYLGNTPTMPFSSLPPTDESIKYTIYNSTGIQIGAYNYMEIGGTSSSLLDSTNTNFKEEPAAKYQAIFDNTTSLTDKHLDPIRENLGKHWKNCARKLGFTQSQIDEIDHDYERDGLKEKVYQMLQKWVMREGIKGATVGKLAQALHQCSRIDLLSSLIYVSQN
Chain of human RIPK3 (Q9Y572 whole entry): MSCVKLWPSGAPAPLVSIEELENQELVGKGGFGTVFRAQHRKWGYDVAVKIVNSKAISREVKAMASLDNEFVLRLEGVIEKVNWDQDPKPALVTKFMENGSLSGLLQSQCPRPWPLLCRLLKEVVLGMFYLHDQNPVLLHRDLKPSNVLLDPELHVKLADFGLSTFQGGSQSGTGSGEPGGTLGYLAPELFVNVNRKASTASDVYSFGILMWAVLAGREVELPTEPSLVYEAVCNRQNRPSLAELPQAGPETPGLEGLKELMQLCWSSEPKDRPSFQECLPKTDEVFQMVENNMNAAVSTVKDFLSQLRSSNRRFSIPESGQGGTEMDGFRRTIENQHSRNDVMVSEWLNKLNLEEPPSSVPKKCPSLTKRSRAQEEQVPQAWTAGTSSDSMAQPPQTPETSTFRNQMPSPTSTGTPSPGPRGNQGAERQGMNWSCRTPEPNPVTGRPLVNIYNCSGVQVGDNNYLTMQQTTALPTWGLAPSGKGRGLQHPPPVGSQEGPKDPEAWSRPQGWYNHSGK

For orientation: IC50 means the concentration needed to halve the response being measured. Usually Kd stands for the concentration at which binding is half-saturated. For the compound `C[C@H](Oc1cc(-c2nn(C)c3c(-c4cnn(C5CCN(C)C(C)(C)C5)c4)cnc(N)c23)ccc1NS(=O)(=O)C(F)F)c1ccc(F)cc1` (single isomer, unassigned) [Compound 155, N-(4-(4-amino-1-methyl-7-(1-((S*)-1,2,2-trimethylpiperidin-4-yl)-1H-pyrazol-4-yl)-1H-pyrazolo[4,3-c]pyridin-3-yl)-2-((S)-1-(4-fluorophenyl)ethoxy)phenyl)-1,1-difluoromethanesulfonamide], the IC50 is 100 to 1000 nM in experiment [1] (3 hours), < 10 nM in experiment [3] (setting [7]) and > 10000 nM in experiment [4] (compound without TSQ cocktail). For the same compound, the Kd in experiment [2] is > 10000 nM; in experiment [5], > 10000 nM; in experiment [6], 1 to 100 nM.
With `C[C@H](Oc1cc(-c2nn(C)c3c(-c4cnn(C5CCN(C)C6(CC6)C5)c4)cnc(N)c23)ccc1NS(=O)(=O)C(F)F)c1ccc(F)cc1` (single isomer, unassigned) [Compound 171, N-(4-(4-amino-1-methyl-7-(1-((R*)-4-methyl-4-azaspiro[2.5]octan-7-yl)-1H-pyrazol-4-yl)-1H-pyrazolo[4,3-c]pyridin-3-yl)-2-((S)-1-(4-fluorophenyl)ethoxy)phenyl)-1,1-difluoromethanesulfonamide], the figures for the IC50 in experiment [1] (3 hours), in experiment [3] (setting [7]) and in experiment [4] (compound without TSQ cocktail) were < 100 nM, 10 to 1000 nM and > 10000 nM, respectively. For the same compound, the Kd was > 10000 nM in experiment [2], > 10000 nM in experiment [5] and 1 to 100 nM in experiment [6].
Regarding `CCS(=O)(=O)Nc1ccc(-c2coc3c(-c4cnn(C5CCOCC5)c4)cnc(N)c23)cc1OCc1ccc(F)cc1` [Compound 3, N-(4-(4-amino-7-(1-(tetrahydro-2H-pyran-4-yl)-1H-pyrazol-4-yl)furo[3,2-c]pyridin-3-yl)-2-((4-fluorobenzyl)oxy)phenyl)ethanesulfonamide], the IC50 in experiment [1] (Mus musculus, Fibroblast, 3 h) was 1000 to 10000 nM. The Kd in experiment [2] is > 10000 nM; in experiment [5], > 10000 nM; in experiment [6], < 1 nM.
Regarding `C[C@H](Oc1cc(-c2nn(C)c3c(-c4cnn(C5CCOCC5)c4)cnc(N)c23)ccc1NS(=O)(=O)C(F)F)c1ccc(Cl)cc1` [Compound 137, (S)-N-(4-(4-amino-1-methyl-7-(1-(tetrahydro-2H-pyran-4-yl)-1H-pyrazol-4-yl)-1H-pyrazolo[4,3-c]pyridin-3-yl)-2-(1-(4-chlorophenyl)ethoxy)phenyl)-1,1-difluoromethanesulfonamide], the IC50 in experiment [1] (Mus musculus, Fibroblast, 3 h) was 1000 to 10000 nM; in experiment [3] (setting [8]) it was < 10 nM; in experiment [4] (setting [9]) it was > 10000 nM.
As for `C[C@H](Oc1cc(-c2nn(C)c3c(-c4cnn(C5CCNC(C(F)(F)F)C5)c4)cnc(N)c23)ccc1NS(=O)(=O)C(F)F)c1ccc(F)cc1` (stereo partly drawn) [Compound 149, N-(4-(4-amino-1-methyl-7-(1-(2-(trifluoromethyl)piperidin-4-yl)-1H-pyrazol-4-yl)-1H-pyrazolo[4,3-c]pyridin-3-yl)-2-((S)-1-(4-fluorophenyl)ethoxy)phenyl)-1,1-difluoromethanesulfonamide], the IC50 was 100 to 1000 nM in experiment [1] (Mus musculus, Fibroblast, 3 h); < 10 nM in experiment [3] (setting [8]); > 10000 nM in experiment [4] (setting [9]).
`Cn1nc(-c2ccc(NS(=O)(=O)C(F)F)c(OCC3CCCCC3)c2)c2c(N)ncc(-c3cnn(C4CCOCC4)c3)c21` [Compound 150, N-(4-(4-amino-1-methyl-7-(1-(tetrahydro-2H-pyran-4-yl)-1H-pyrazol-4-yl)-1H-pyrazolo[4,3-c]pyridin-3-yl)-2-(cyclohexylmethoxy)phenyl)-1,1-difluoromethanesulfonamide]: the IC50 in experiment [1] (Mus musculus, Fibroblast, 3 h) lay in the range of 1000 to 10000 nM. Further, the values for the Kd in experiment [2], in experiment [5] and in experiment [6] were > 10000 nM, > 10000 nM and < 1 nM, respectively.
For the compound `[2H]C([2H])([2H])N1CCC(n2cc(-c3cnc(N)c4c(-c5ccc(NS(=O)(=O)C(F)F)c(O[C@@H](C)c6ccc(F)cc6)c5)nn(C)c34)cn2)CC1(C)C` (stereo partly drawn) [Compound 152, N-(4-(4-amino-7-(1-(2,2-dimethyl-1-(methyl-d3)piperidin-4-yl)-1H-pyrazol-4-yl)-1-methyl-1H-pyrazolo[4,3-c]pyridin-3-yl)-2-((S)-1-(4-fluorophenyl)ethoxy)phenyl)-1,1-difluoromethanesulfonamide], the IC50 in experiment [1] (Mus musculus, Fibroblast, 3 h) was 100 to 1000 nM; in experiment [3] (setting [8]) it was < 10 nM; in experiment [4] (setting [9]), > 10000 nM.
Consider `C[C@H](Oc1cc(-c2nn(C)c3c(-c4cnn(C5CCN(C)C(C(F)F)C5)c4)cnc(N)c23)ccc1NS(=O)(=O)C(F)F)c1ccc(F)cc1` (stereo partly drawn) [Compound 158, N-(4-(4-amino-7-(1-(2-(difluoromethyl)-1-methylpiperidin-4-yl)-1H-pyrazol-4-yl)-1-methyl-1H-pyrazolo[4,3-c]pyridin-3-yl)-2-((S)-1-(4-fluorophenyl)ethoxy)phenyl)-1,1-difluoromethanesulfonamide], for which the half-maximal inhibitory concentration (IC50) in experiment [1] (Mus musculus, Fibroblast, 3 h) was < 100 nM; in experiment [3] (setting [8]) it was < 10 nM; in experiment [4] (setting [9]), > 10000 nM. Also, the Kd in experiment [6] was 1 to 100 nM.
Take `C[C@H](Oc1cc(-c2nn(C)c3c(-c4cnn(C5CCC(N(C)C)C5)c4)cnc(N)c23)ccc1NS(=O)(=O)C(F)F)c1ccc(F)cc1` (stereo partly drawn) [Compound 168, N-(4-(4-amino-7-(1-(3-(dimethylamino)cyclopentyl)-1H-pyrazol-4-yl)-1-methyl-1H-pyrazolo[4,3-c]pyridin-3-yl)-2-((S)-1-(4-fluorophenyl)ethoxy)phenyl)-1,1-difluoromethanesulfonamide]: the IC50 in experiment [1] (Mus musculus, Fibroblast, 3 h) was 100 to 1000 nM; in experiment [3] (setting [8]) it was 10 to 1000 nM; in experiment [4] (setting [9]), > 10000 nM.
